# Assay results as given in patent US20120202801A1, “METHODS FOR TREATING BREAST CANCER” (priority 2009, published 2012).
# Marks after values point to notes of the source that are not given here.
# Tests used:
# MCF-7 xenografts = assay: MCF-7 estrogen-sensitive breast cancer xenograft, combination with tamoxifen; format: in vivo, mice
# Protocol: Experimental Design. […] Estrogen pellets (0.72 mg/pellet) were implanted in the mice 9 days prior to cell implantation.
# Tumor size was measured by calipers at periodic intervals during the study. After 42 days of treatment, the mice were sacrificed.
# MCF-7p xenografts [1] = assay: Aggressive MCF-7p estrogen-sensitive breast cancer xenograft, combination with tamoxifen; format: in vivo, mice
# Protocol: (§1) Aggressively growing, estrogen-sensitive MCF 7 breast cancer cells (hereafter referred to as MCF-7p) were passaged in vivo prior to use to generate a more aggressive cell line. Tumors were excised from donor mice, passed through a sterile mesh, and suspended in 0.9% sodium chloride, and 20 mg of this suspension was mixed 1:1 with Matrigel™. These tumor fragments were implanted subcutaneously into female athymic nude mice bearing estrogen pellets (0.72 mg/pellet) that had been inserted 2 days previously. After 28 days, when the tumors had become established and grown to a substantial size (i.e., the mean tumor size had reached ˜435 mm^3), mice were divided into 4 groups, and treatment was administered as shown in Table 34.
# Tumor size was measured by calipers at periodic intervals during the study. When the mean tumor size in a group had reached 1500 mm^3, or after 72 days of treatment, the mice in the group were sacrificed.
# MCF-7p xenografts [2] = assay: Aggressive MCF-7p estrogen-sensitive breast cancer xenograft, combination with paclitaxel; format: in vivo, mice
# Protocol: as §1, with “Experimental Design. Aggressively” for “Aggressively”, “˜430” for “˜435”, “30.” for “34.”
# Tumor size was measured by calipers at periodic intervals during the study. After tumors in a given group had reached an average size of ˜1500 mm^3, the mice in that group were sacrificed; after 72 days of treatment, any remaining groups were taken off study.
# [3] = system: aromatase-overexpressing MCF-7 xenografts; assay: Aromatase-overexpressing MCF-7 breast cancer xenograft, combination with letrozole; format: in vivo, mice; details: for Mean % Inhibition of Tumor Size vs Vehicle at Day 42 / Proportion Cured: aromatase-overexpressing MCF-7 xenografts, nude mice
# Protocol: Experimental Design. Aromatase-overexpressing, estrogen-sensitive MCF-7 cells (7.0×10^6 cells/mouse) were implanted subcutaneously in ovariectomized female athymic nude mice. Androstenedione pellets (6 mg/pellet) were implanted 1 day prior to cell implantation.
# Tumor size was measured by calipers at periodic intervals during the study. When the individual tumor size in a mouse exceeded 1500 mm^3, or after 98 days of treatment, that mouse was sacrificed.
# HT1080 cells = assay: Cell cycle analysis by propidium iodide flow cytometry in HT1080 cells (% cells in S-phase); format: cell-based, human; details: for % Cells In S-Phase: HT1080 cells, 100 nM, 18 hours, normoxic, DMSO control 17.3
# Protocol: Experimental Design. […] After treatment, cells were trypsinized, and stained with propidium iodide (PI) dye to measure DNA content of individual cells by flow cytometry. Output comprised histograms showing relative DNA content in 10,000 cells.
# While compounds which cause greater than 20% of the cells to accumulate in S-phase at 100 nM are considered active, a larger percentage of cells may be accumulated in S-phase at lower doses depending on the Compound, as shown in FIG. 12 for example.
# HT1080 xenografts [4] = assay: Time course of tumor size and plasma human VEGF in HT1080 xenografts; format: in vivo, mice; details: by Day 1
# Protocol: (§2) Experimental Design. HT1080 cells (5×10^6 cells/mouse) were implanted subcutaneously in male athymic nude mice.
# Tumor size was measured by calipers immediately pre-treatment and at the time of sacrifice on Day 1, 2, or 3 (5 mice per group per day). At sacrifice, the plasma was collected for assay of pathologic human VEGF concentration using an ELISA that recognizes human VEGF121 and VEGF165 (as described in Section 9.1.1.1).
# HT1080 xenografts [5] = assay: BrdU labeling of tumor cells from HT1080 xenografts in vivo; parameters: species or system mice; details: 1, 2, or 3 days of treatment
# Protocol: as §2
# The mice were sacrificed 3 hours later, and the tumors collected. A single cell suspension was prepared from the tumor cells. The cells were permeabilized and an antibody to BrdU was used to stain cells that had entered S phase during the labeling period. The proportion of cells actively synthesizing DNA was determined by cell sorting.
# [6] = system: human VEGF121 and VEGF165; assay: Intra-tumor and pathologic plasma human VEGF in HT1080 xenografts, Compound 1205 (studies #21, #23); format: in vivo, mice
# Source text: Experimental Design. HT1080 cells (5×10^6 cells/mice) were implanted subcutaneously into male athymic nude mice. Treatment with vehicle alone or Compound 1205 was initiated when the median tumor volume was approximately 311±88 mm^3. Table 7 and Table 9 (study design #21 and #23) provide the study design for assessing tumor and plasma pathologic VEGF concentrations—each group in each study included eight (8) mice. When the tumors in vehicle-treated mice had reached the target size of ˜1200 mm^3 for study #21 and ˜1500 mm^3 for study #23, all mice in the study were sacrificed, and excised tumors were homogenized in buffer containing protease inhibitors. Both intra-tumor and pathologic plasma human VEGF levels were measured using an ELISA that recognizes human VEGF121 and VEGF165. Intra-tumor VEGF levels were normalized to the total tumor protein concentration and pathologic plasma VEGF levels were expressed in pg/mL. Because smaller tumors produce less VEGF per mg of tumor protein, intra-tumor VEGF levels were normalized to tumor size.
# HT1080 xenografts [7] = assay: HT1080 xenograft tumor growth, Compound 1205, 1330 and Compound #10 (studies 21-24b); format: in vivo, mice
# Source text: Experimental Design. HT1080 cells (5×10^6 cells/mouse) were implanted subcutaneously in male athymic nude mice. […] For comparison, Compound #10 was included in this study.
# [8] = 42 days of treatment, combination = Compound #10 with tamoxifen
# [9] = Tamoxifen alone, 10 mg/kg QD, nude mice
# [10] = Tamoxifen alone, 8 mg/kg Oral QD, nude mice
# [11] = Paclitaxel alone, 10 mg/kg IV Days 2, 5, 9, 12, 15, nude mice
# [12] = Letrozole (high-dose), 30 μg/mouse Oral QD
# [13] = Letrozole (low-dose), 10 μg/mouse Oral QD
structure (smiles),measurement,setting,value
"CC/C(=C(\c1ccccc1)c1ccc(OCCN(C)C)cc1)c1ccccc1 [Tamoxifen, tamoxifen]",mice cured (%),MCF-7 xenografts; [8],70%
same,mice cured (number),MCF-7 xenografts; [8],7 of the 10
same,Mean % Inhibition of Tumor Size vs Vehicle at Day 42,MCF-7 xenografts; [9],84%
same,Proportion Cured,MCF-7 xenografts; [9],70%
same,tumor regression and growth delay,MCF-7 xenografts; combination = Compound #10 with tamoxifen,tumor regression and growth delay were observed
same,tumor growth,MCF-7p xenografts [1],only modestly delayed tumor growth
same,Mean % Inhibition of Tumor Size vs Vehicle at Day 26,MCF-7p xenografts [1]; [10],33* %
same,Median Time to Tumor Size ≧1000 mm^3,MCF-7p xenografts [1]; [10],24 days
"CC(=O)O[C@H]1C(=O)[C@@]2(C)[C@H]([C@H](OC(=O)c3ccccc3)[C@]3(O)C[C@H](OC(=O)[C@H](O)[C@@H](NC(=O)c4ccccc4)c4ccccc4)C(C)=C1C3(C)C)[C@]1(OC(C)=O)CO[C@@H]1C[C@@H]2O [Paclitaxel, paclitaxel]",tumor growth,MCF-7p xenografts [2],transient cytoreduction and a tumor growth delay
same,Mean % Inhibition of Tumor Size vs Vehicle at Day 26,MCF-7p xenografts [2]; [11],78* %
same,Median Time to Tumor Size ≧1000 mm^3,MCF-7p xenografts [2]; [11],47 days
N#Cc1ccc(C(c2ccc(C#N)cc2)n2cncn2)cc1 [letrozole],Mean % Inhibition of Tumor Size vs Vehicle at Day 42,[3]; [12],79%
same,Proportion Cured,[3]; [12],20%
same,Mean % Inhibition of Tumor Size vs Vehicle at Day 42,[3]; [13],72%
same,Proportion Cured,[3]; [13],10%
same,tumor growth,[3]; high-dose letrozole,tumor regression was observed
same,tumor growth,[3]; low-dose letrozole,tumor growth was prevented but tumor reduction was not observed
O=C(Oc1ccc(Cl)cc1)N1CCc2c([nH]c3ccc(Cl)cc23)C1c1ccc(OCCN2CCOCC2)cc1 (centres unmarked) [drawing 535],% Cells In S-Phase,HT1080 cells,16.4%
"NC(Cn1ccc(=O)c(O)c1)C(=O)O (centres unmarked) [mimosine, reference compound]",delay or prolongation of the cell cycle,"HT1080 cells; same tumor cells, data not shown",does not delay or prolong the cell cycle or reduce VEGF production
COc1cccc2c1C(=O)c1c(O)c3c(c(O)c1C2=O)C[C@@](O)(C(=O)CO)C[C@@H]3O[C@H]1C[C@H](N)[C@H](O)[C@H](C)O1 [doxorubicin],pathologic plasma human VEGF levels vs control,HT1080 xenografts [4],numerically lower than in control animals
same,BrdU staining of tumor cells (proportion of cells in S phase),HT1080 xenografts [5],decreased the percentage of tumor cells staining with BrdU
O=C(Oc1ccc(Cl)cc1)N1CCc2c([nH]c3ccc(Cl)cc23)[C@@H]1c1ccc(OCC[C@H](O)CO)cc1 [Compound 1205],inhibition of both tumor and pathologic plasma human VEGF levels,[6]; 0.5 or 3 mg/kg QD,more than 95%
same,Mean difference in human tumor VEGF (%) at Day 14,"[6]; Study #21, 3 mg/kg QD, 14 days",98%**
same,Final mean terminal tumor size in treatment group,HT1080 xenografts [7]; Study 21: 3 mg/kg QD,379 mm^3
same,Final mean terminal tumor size in treatment group,HT1080 xenografts [7]; Study 22: 0.5 mg/kg QD,1750 mm^3
same,Difference vs. vehicle in median number of days to reach 1000 mm^3,HT1080 xenografts [7]; Study 22: 3 mg/kg QD,14** Days
same,Final mean terminal tumor size in treatment group,HT1080 xenografts [7]; Study 22: 3 mg/kg QD,1840 mm^3
same,Difference vs. vehicle in median number of days to reach 1000 mm^3,HT1080 xenografts [7]; Study 24a: 10 mg/kg QD,14** Days
same,Mean difference in tumor growth rate at the Day that the vehicle-treated tumors taken off study (%),"HT1080 xenografts [7]; Study 24a: 10 mg/kg QD, Day 11",76%**
same,Difference vs. vehicle in median number of days to reach 1000 mm^3,HT1080 xenografts [7]; Study 24b: 0.3 mg/kg QD,0.7 days
same,Final mean terminal tumor size in treatment group,HT1080 xenografts [7]; Study 24b: 0.3 mg/kg QD,1540 mm^3
O=C(Oc1ccc(Cl)cc1)N1CCc2c([nH]c3ccc(Cl)cc23)C1c1ccc(OCCN2CCCCC2)cc1 (centres unmarked),% Cells In S-Phase,HT1080 cells,16.8%
